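Five concentrations, 48 hours, 96-well plates. The concentration for 50% growth inhibition is given as GI50.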 Active and inactive are the calls of the source. Cut-off read from the data, not from the text of the source: active = GI50 up to about 1.1 µM and inactive = higher.
Key:
Assay in all cases: DTP human tumour cell line panel, 48 h
MOLT-4 = system: MOLT-4
OVCAR-4 = system: OVCAR-4
SF-268 = system: SF-268
NCI-H460 = system: NCI-H460
SK-OV-3 = system: SK-OV-3
LOX IMVI = system: LOX IMVI
IGROV-1 = system: IGROV-1
UACC-257 = system: UACC-257
NCI-H226 = system: NCI-H226
Malme-3M = system: Malme-3M
SN12C = system: SN12C
RPMI-8226 = system: RPMI-8226
SW-620 = system: SW-620
SF-539 = system: SF-539
SK-MEL-5 = system: SK-MEL-5
TK-10 = system: TK-10
HCC 2998 = system: HCC 2998
OVCAR-5 = system: OVCAR-5
U-251 = system: U-251
A549 = system: A549

Measured: GI50

N#CC1=C(O)NC(O)=C(C#N)C1c1c(Cl)cccc1Cl
inactive: MOLT-4 > 100 µM | OVCAR-4 67.8 µM | SF-268 30.9 µM | NCI-H460 20.9 µM | SK-OV-3 23.6 µM | LOX IMVI 15.8 µM | IGROV-1 40.6 µM | UACC-257 35.2 µM | NCI-H226 17.9 µM | Malme-3M 23.1 µM | SN12C 31.8 µM | RPMI-8226 > 100 µM | SW-620 37.2 µM | SF-539 20 µM | SK-MEL-5 27.3 µM | TK-10 40.4 µM | HCC 2998 7.93 µM | OVCAR-5 33.5 µM | U-251 32.7 µM | A549 27.3 µM

Nc1ccccc1S(=O)(=O)c1ccccc1
inactive: MOLT-4 > 100 µM | OVCAR-4 > 100 µM | SF-268 > 100 µM | NCI-H460 > 100 µM | SK-OV-3 > 100 µM | LOX IMVI > 100 µM | IGROV-1 > 100 µM | UACC-257 > 100 µM | NCI-H226 51.2 µM | Malme-3M > 100 µM | SN12C > 100 µM | RPMI-8226 > 100 µM | SW-620 > 100 µM | SF-539 > 100 µM | SK-MEL-5 > 100 µM | TK-10 > 100 µM | HCC 2998 > 100 µM | OVCAR-5 > 100 µM | U-251 > 100 µM | A549 > 100 µM

CC(C)CC(N)C(=O)NC(CNC(CCC(N)=O)C(=O)NC(CC(C)C)C(=O)NC(CC(C)C)C(=O)O)Cc1ccc2ccccc2c1 (stereo not given)
inactive: MOLT-4 > 10 µM | OVCAR-4 > 10 µM | SF-268 > 10 µM | NCI-H460 > 10 µM | SK-OV-3 > 10 µM | LOX IMVI > 10 µM | IGROV-1 > 10 µM | UACC-257 > 10 µM | NCI-H226 > 10 µM | Malme-3M > 10 µM | SN12C > 10 µM | RPMI-8226 > 10 µM | SW-620 > 10 µM | SF-539 > 10 µM | SK-MEL-5 > 10 µM | TK-10 > 10 µM | HCC 2998 > 10 µM | OVCAR-5 > 10 µM | U-251 > 10 µM | A549 > 10 µM
